Results reported in patent US20260365673A1, “PYRROLO[2,3-D]PYRIMIDIN-4-AMINE DERIVATIVE AND USE THEREOF IN MEDICINE” (HAISCO PHARMACEUTICAL GROUP CO., LTD., priority 2023, published 2026).

Experiments:
[1] = Pharmacokinetic Test in Rats (Inhalation Administration); details: rat, in vivo, inhaled or intranasal, male SD rats, single dose 0.03 mg/kg; for Cmax / AUC(0-t): lung tissue; for AUC(0-t): read-out: Lung AUC0-t; for Kp: read-out: Lung AUC0-t/plasma AUC0-t
Protocol: 4: Pharmacokinetic Test in Rats (Inhalation Administration)
The samples were analyzed quantitatively by LC-MS/MS.

[2] = 12-week, PATENT-1, riociguat group, cited from earlier work

Cmax [1] [ng/mL]	AUC(0-t) [1] [ng·h/mL]	Kp [1]	Compound	anemia ([2]; placebo 2%) [%]	gastroesophageal reflux disease ([2]; placebo 2%) [%]	diarrhea ([2]; placebo 8%) [%]
2540	5430		CC(C)(Cc1csc(C2(C)C(=O)Nc3nc(-n4nc(Cc5ccccc5F)c5ncc(F)cc54)nc(N)c32)n1)C(=O)O (single isomer, unassigned) [Compound 35-1]			
4070	10100	49.1	CC(C)(Cc1csc(C2(C)C(=O)Nc3nc(-n4nc(Cc5cccc(F)c5F)c5ncc(F)cc54)nc(N)c32)n1)C(=O)O (single isomer, unassigned) [Compound 36-1]			
1730	3280		CC(C)(Cc1csc(C2(C)C(=O)Nc3nc(-n4nc(CCC(F)(F)C(F)(F)F)c5ncc(F)cc54)nc(N)c32)n1)C(=O)O (single isomer, unassigned) [Compound 37-1]			
2980	3630	65	CC(C)(Cc1csc([C@]2(C)C(=O)Nc3nc(-c4nc(CCC(F)(F)C(F)(F)F)n5ncccc45)nc(N)c32)n1)C(=O)O [Compound 3-1]			
2820	5170	659	CC(C)(Cc1cccc([C@@]2(C)C(=O)Nc3nc(-c4nn(CCC(F)(F)C(F)(F)F)c5cc(Cl)cnc45)nc(N)c32)c1)C(=O)O [Compound 6-1]			
2840	12200	245	CC(C)(Cc1csc([C@]2(C)C(=O)Nc3nc(-c4nc(Cc5ccccc5F)n5ncccc45)nc(N)c32)n1)C(=O)O [Compound 19-1]			
1180	608	97.9	CC(C)(Cc1csc([C@]2(C)C(=O)Nc3nc(-n4c(=O)n(CCC(F)(F)C(F)(F)F)c5cc(F)ccc54)nc(N)c32)n1)C(=O)O [Compound 31-1]			
1740		83.6	CC(C)(Cc1csc([C@]2(C)C(=O)Nc3nc(-n4c(=O)n(Cc5ccccc5F)c5cc(F)ccc54)nc(N)c32)n1)C(=O)O [Compound 38-1]			
2850	4500	43.4	CC(C)(Cc1csc([C@]2(C)C(=O)Nc3nc(-c4nc(CCC(F)(F)C(F)(F)F)n5cc(F)ccc45)nc(N)c32)n1)C(=O)O [Compound 45-1]			
273	220		CC(C)(Cc1csc([C@]2(C)C(=O)Nc3nc(-c4nn(CCC(F)(F)C(F)(F)F)c5ncccc45)nc(N)c32)n1)C(=O)O [Control compound 1, reference compound]			
			COC(=O)N(C)c1c(N)nc(-c2nn(Cc3ccccc3F)c3ncccc23)nc1N [riociguat, Riociguat]	7	5	12

Compound	Cmax [1] [ng/mL]	AUC(0-t) [1] [ng·h/mL]	Kp [1]	anemia ([2]; placebo 2%) [%]	gastroesophageal reflux disease ([2]; placebo 2%) [%]	diarrhea ([2]; placebo 8%) [%]
CC(C)(Cc1csc([C@]2(C)C(=O)Nc3nc(-n4nc(CCC(F)(F)C(F)(F)F)c5cc(Cl)ccc54)nc(N)c32)n1)C(=O)O (single isomer, unassigned) [Compound 4-1]	2350	2460	77.1			
CC(C)(Cc1csc([C@]2(C)C(=O)Nc3nc(-n4nc(CCC(F)(F)C(F)(F)F)c5cc(F)ccc54)nc(N)c32)n1)C(=O)O [Compound 17-1]	1750	2020	48.4			
